# According to patent US10647713B2 (Nimbus Lakshmi, Inc., priority 2016, dated 2020):
# pKd: −log10 of the molar value.
# Target: human TYK2 (JH2domain-pseudokinase) (Homo sapiens (Human), UniProt P29597)
# Assay: TYK2 JH2 Domain Binding Assay (KINOMEscan, DiscoveRx)
# Conditions: 11-point dilution, duplicate
# In short: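 TYK2 JH2 (G556–D888)–NFkB DBD fusion, DNA-tagged, from HEK293 extracts (<0.1 nM) competed against immobilised biotinylated ligand for 1 h at room temperature, 0.9% DMSO. Bead-retained kinase quantified by qPCR; Kd from 11-point 3-fold series (top 30,000 nM, duplicate), Hill fit with slope −1.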
# human TYK2 (JH2domain-pseudokinase), sequence (P29597 556-888): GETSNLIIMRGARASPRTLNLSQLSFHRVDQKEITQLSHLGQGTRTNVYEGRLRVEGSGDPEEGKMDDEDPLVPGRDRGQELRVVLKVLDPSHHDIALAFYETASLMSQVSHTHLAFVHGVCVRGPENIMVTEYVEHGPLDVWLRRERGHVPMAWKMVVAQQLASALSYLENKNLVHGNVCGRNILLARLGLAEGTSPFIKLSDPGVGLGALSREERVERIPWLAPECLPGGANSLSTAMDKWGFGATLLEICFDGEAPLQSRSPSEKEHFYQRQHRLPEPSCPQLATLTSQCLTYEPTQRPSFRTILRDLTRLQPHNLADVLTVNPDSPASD
row,Structure (SMILES),pKd
1,"COc1c(Nc2cc(Nc3cc(C)nc(C)n3)nc3[nH]cnc23)cccc1-c1ncn(C)n1 [I-3, N5-(2,6-dimethylpyrimidin-4-yl)-N7-(2-methoxy-3-(1-methyl-1H-1,2,4-triazol-3-yl)phenyl)-3H-imidazo[4,5-b]pyridine-5,7-diamine]",9.30 to 10.00
2,"CS(=O)(=O)c1cc(C2CCOCC2)ccc1Nc1cc(NC(=O)C2CC2)nc2[nH]c(C(F)F)nc12 [I-232, N-(2-(difluoromethyl)-7-((2-(methylsulfonyl)-4-(tetrahydro-2H-pyran-4-yl)phenyl)amino)-3H-imidazo[4,5-b]pyridin-5-yl)cyclopropanecarboxamide]",9.30 to 10.00
3,"COc1c(Nc2cc(NC(=O)C3C[C@@H]3F)nc3[nH]c(C(F)F)nc23)cccc1-c1ncn(C)n1 (stereo in doubt) [I-374, N-(2-(difluoromethyl)-7-((2-methoxy-3-(1-methyl-1H-1,2,4-triazol-3-yl)phenyl)amino)-3H-imidazo[4,5-b]pyridin-5-yl)-2-fluorocyclopropane-1-carboxamide]",8.00 to 9.00
4,"Cc1nc2c(Nc3ccc(C4CCCCO4)cc3S(C)(=O)=O)cc(Nc3cc4n(n3)CCOC4)nc2[nH]1 (stereo in doubt) [I-586, (R)—N5-(6,7-dihydro-4H-pyrazolo[5,1-c][1,4]oxazin-2-yl)-2-methyl-N7-(2-(methylsulfonyl)-4-(tetrahydro-2H-pyran-2-yl)phenyl)-3H-imidazo[4,5-b]pyridine-5,7-diamine]",9.30 to 10.00
5,"CN(c1cc(Cl)ccc1Nc1cc(Nc2cccc(C#N)n2)nc2[nH]c(C(F)F)nc12)S(C)(=O)=O [I-94, N-(5-chloro-2-((5-((6-cyanopyridin-2-yl)amino)-2-(difluoromethyl)-3H-imidazo[4,5-b]pyridin-7-yl)amino)phenyl)-N-methylmethanesulfonamide]",9.00 to 9.30
6,"Cc1ccc(Nc2cc(Nc3cnc(C)c(C)n3)nc3[nH]c(C)nc23)c(N(C)S(C)(=O)=O)c1 [I-132, N-(2-((5-((5,6-dimethylpyrazin-2-yl)amino)-2-methyl-3H-imidazo[4,5-b]pyridin-7-yl)amino)-5-methylphenyl)-N-methylmethanesulfonamide]",9.30 to 10.00
7,"COc1c(Nc2cc(NC(=O)[C@H]3C[C@H]3F)nc3[nH]c(C)nc23)cccc1-c1ncn(C)n1 [I-267, (1R,2R)-2-fluoro-N-(7-((2-methoxy-3-(1-methyl-1H-1,2,4-triazol-3-yl)phenyl)amino)-2-methyl-3H-imidazo[4,5-b]pyridin-5-yl)cyclopropane-1-carboxamide]",8.00 to 9.00
8,"Cc1nc2c(Nc3ccc(-c4cn(C)cn4)cc3S(C)(=O)=O)cc(NC(=O)[C@H]3C[C@H]3F)nc2[nH]1 [I-251, (1R,2R)-2-fluoro-N-(2-methyl-7-((4-(1-methyl-1H-imidazol-4-yl)-2-(methylsulfonyl)phenyl)amino)-3H-imidazo[4,5-b]pyridin-5-yl)cyclopropane-1-carboxamide]",9.30 to 10.00
9,"Cc1nc2c(Nc3ccc(C4CC4)cc3P(C)(C)=O)cc(NC(=O)C3CC3)nc2[nH]1 [I-286, N-(7-((4-cyclopropyl-2-(dimethylphosphoryl)phenyl)amino)-2-methyl-3H-imidazo[4,5-b]pyridin-5-yl)cyclopropanecarboxamide]",9.30 to 10.00
10,"Cc1nc2c(Nc3ccc(-c4nn(C)cc4C)cc3S(C)(=O)=O)cc(NC(=O)[C@@H]3C[C@@H]3F)nc2[nH]1 [I-262, (1S,2S)—N-(7-((4-(1,4-dimethyl-1H-pyrazol-3-yl)-2-(methylsulfonyl)phenyl)amino)-2-methyl-3H-imidazo[4,5-b]pyridin-5-yl)-2-fluorocyclopropane-1-carboxamide]",9.30 to 10.00
11,"CO[C@@H](C)c1ccc(Nc2cc(NC(=O)C3CC3)nc3[nH]c(C(F)F)nc23)c(S(C)(=O)=O)c1 [I-455, (S)—N-(2-(difluoromethyl)-7-((4-(1-methoxyethyl)-2-(methylsulfonyl)phenyl)amino)-3H-imidazo[4,5-b]pyridin-5-yl)cyclopropanecarboxamide]",8.00 to 9.00
12,"CS(=O)(=O)c1cc([C@@H]2CCCO2)ccc1Nc1cc(NC(=O)[C@@H]2CC2(F)F)nc2[nH]c(C(F)F)nc12 [I-316, (S)—N-(2-(difluoromethyl)-7-((2-(methylsulfonyl)-4-((S)-tetrahydrofuran-2-yl)phenyl)amino)-3-imidazo[4,5-b]pyridin-5-yl)-2,2-difluorocyclopropane-1-carboxamide]",9.00 to 9.30
13,"Cc1nc2c(Nc3ccc([C@@H]4CCCOC4)cc3S(C)(=O)=O)cc(NC(=O)C3CC3)nc2[nH]1 [I-255, (S)—N-(2-methyl-7-((2-(methylsulfonyl)-4-(tetrahydro-2H-pyran-3-yl)phenyl)amino)-3H-imidazo[4,5-b]pyridin-5-yl)cyclopropanecarboxamide]",9.30 to 10.00
14,"Cc1nc2c(Nc3ccc([C@@H]4COCCO4)cc3S(C)(=O)=O)cc(NC(=O)C3CC3)nc2[nH]1 [I-611, (R)—N-(7-((4-(1,4-dioxan-2-yl)-2-(methylsulfonyl)phenyl)amino)-2-methyl-3H-imidazo[4,5-b]pyridin-5-yl)cyclopropanecarboxamide]",9.30 to 10.00
15,"COc1c(Nc2cc(Nc3cc(F)c(N4CC(OC)C4)cn3)nc3[nH]c(C)nc23)cccc1-c1nc(C)nn1C [I-168, N7-(3-(1,3-dimethyl-1H-1,2,4-triazol-5-yl)-2-methoxyphenyl)-N5-(4-fluoro-5-(3-methoxyazetidin-1-yl)pyridin-2-yl)-2-methyl-3H-imidazo[4,5-b]pyridine-5,7-diamine]",< 8.00
16,"C[S+]([O-])c1ccccc1Nc1cc(NC(=O)C2CC2)nc2[nH]c(C(F)F)nc12 (stereo not drawn) [I-333, N-(2-(difluoromethyl)-7-((2-(methylsulfinyl)phenyl)amino)-3H-imidazo[4,5-b]pyridin-5-yl)cyclopropanecarboxamide]",8.00 to 9.00
17,"Cc1nc2c(Nc3ccc(-c4cnn(C)c4C)cc3N(C)S(C)(=O)=O)cc(NC(=O)C3CC3)nc2[nH]1 [I-199, N-(7-((4-(1,5-dimethyl-1H-pyrazol-4-yl)-2-(N-methylmethylsulfonamido)phenyl)amino)-2-methyl-3H-imidazo[4,5-b]pyridin-5-yl)cyclopropanecarboxamide]",> 10.00
18,"CS(=O)(=O)c1cc([C@@H]2CCCO2)ccc1Nc1cc(NC(=O)[C@H]2CC2(F)F)nc2[nH]c(C(F)F)nc12 [I-317, (R)—N-(2-(difluoromethyl)-7-((2-(methylsulfonyl)-4-((S)-tetrahydrofuran-2-yl)phenyl)amino)-3-imidazo[4,5-b]pyridin-5-yl)-2,2-difluorocyclopropane-1-carboxamide]",9.30 to 10.00
19,Cc1nc2c(Nc3ccc(-c4ccn(C5CCOCC5)n4)cc3S(C)(=O)=O)cc(NC(=O)C3CC3)nc2[nH]1 [I-523],> 10.00
20,Cc1nc2c(Nc3ccc(F)cc3S(C)(=O)=O)cc(Nc3cc4c(nn3)CCC4)nc2[nH]1 [I-639],> 10.00

# More lines, now with the values ahead:
row,pKd,Structure (SMILES)
1,9.00 to 9.30,"Cc1cnn(-c2ccc(Nc3cc(NC(=O)C4CC4)nc4[nH]c(C)nc34)c(N(C)S(C)(=O)=O)c2)c1 [I-145, N-(2-methyl-7-((4-(4-methyl-1H-pyrazol-1-yl)-2-(N-methylmethylsulfonamido)phenyl)amino)-3H-imidazo[4,5-b]pyridin-5-yl)cyclopropanecarboxamide]"
2,8.00 to 9.00,"COc1c(Nc2cc(Nc3cnc(C(C)(C)OC)c(C)n3)nc3[nH]c(C(F)F)nc23)cccc1-c1nnn(C)n1 [I-56, 2-(difluoromethyl)-N7-(2-methoxy-3-(2-methyl-2H-tetrazol-5-yl)phenyl)-N5-(5-(2-methoxypropan-2-yl)-6-methylpyrazin-2-yl)-3H-imidazo[4,5-b]pyridine-5,7-diamines]"
3,9.00 to 9.30,"Cc1nc2c(Nc3ccc(C4CCC4)cc3S(C)(=O)=O)cc(NC(=O)[C@H]3C[C@H]3F)nc2[nH]1 [I-413, (1R,2R)—N-(7-((4-cyclobutyl-2-(methylsulfonyl)phenyl)amino)-2-methyl-3H-imidazo[4,5-b]pyridin-5-yl)-2-fluorocyclopropane-1-carboxamide]"
4,> 10.00,"Cc1nc2c(Nc3ccc(-c4cc(C)n(C)n4)cc3S(C)(=O)=O)cc(Nc3cc4n(n3)CCOC4)nc2[nH]1 [I-514, N5-(6,7-dihydro-4H-pyrazolo[5,1-c][1,4]oxazin-2-yl)-N7-(4-(1,5-dimethyl-1H-pyrazol-3-yl)-2-(methylsulfonyl)phenyl)-2-methyl-3H-imidazo[4,5-b]pyridine-5,7-diamine]"
5,8.00 to 9.00,"CS(=O)(=O)c1cc(C2CCC2)ccc1Nc1cc(NC(=O)[C@H]2C[C@H]2F)nc2[nH]c(C(F)F)nc12 [I-432, (1R,2R)—N-(7-((4-cyclobutyl-2-(methylsulfonyl)phenyl)amino)-2-(difluoromethyl)-3H-imidazo[4,5-b]pyridin-5-yl)-2-fluorocyclopropane-1-carboxamide]"
6,9.30 to 10.00,"COc1c(Nc2cc(Nc3cccc(C#N)n3)nc3[nH]c(C(F)F)nc23)cccc1-c1nnn(C)n1 [I-17, 6-((2-(difluoromethyl)-7-((2-methoxy-3-(2-methyl-2H-tetrazol-5-yl)phenyl)amino)-3H-imidazo[4,5-b]pyridin-5-yl)amino)picolinonitrile]"
7,9.30 to 10.00,COCc1ccc(Nc2cc(Nc3ccc(F)cc3S(C)(=O)=O)c3nc(C)[nH]c3n2)nn1 [I-636]
8,9.30 to 10.00,"[2H]C([2H])([2H])N(c1ccccc1Nc1cc(Nc2cc(C)nc(C)n2)nc2[nH]c(C)nc12)S(=O)(=O)C([2H])([2H])[2H] [I-458, N-(2-((5-((2,6-dimethylpyrimidin-4-yl)amino)-2-methyl-3H-imidazo[4,5-b]pyridin-7-yl)amino)phenyl)-N-(methyl-d3)methanesulfonamide-d3]"
9,9.30 to 10.00,"Cc1nc(-c2ccc(Nc3cc(Nc4cnc(C)c(C)n4)nc4[nH]c(C(F)F)nc34)c(N(C)S(C)(=O)=O)c2)n(C)n1 [I-166, N-(2-((2-(difluoromethyl)-5-((5,6-dimethylpyrazin-2-yl)amino)-3H-imidazo[4,5-b]pyridin-7-yl)amino)-5-(1,3-dimethyl-1H-1,2,4-triazol-5-yl)phenyl)-N-methyl-methanesulfonamide]"
10,9.30 to 10.00,"Cc1nc2c(Nc3ccccc3S(C)(=O)=O)cc(NC(=O)C3CC3)nc2[nH]1 [I-177, N-(2-methyl-7-((2-(methylsulfonyl)phenyl)amino)-3H-imidazo[4,5-b]pyridin-5-yl)cyclopropanecarboxamide]"
